From patent US12569515B2, “Gold-containing agents for the treatment of lung infections” (Aurovir Pharma GmbH, priority 2020, dated 2026) come the findings set out here.

In series [1] the test system is mouse model for acute allergic asthma. The series is described as follows: Anti-inflammatory action in a mouse model for acute allergic asthma, intranasal application.
Series [2] deals with SARS-CoV-2 spike protein / ACE2 receptor interaction (Severe acute respiratory syndrome coronavirus 2, UniProt P0DTC2). The series is described as follows: Inhibition of the spike/ACE2 interaction by ELISA. The series is classed as binding. A general note: ELISA stands for enzyme-linked immunosorbent assay.
The subject of a further series is CaLu-3 cells. The series is described as follows: Cytotoxicity in CaLu-3 cells (crystal violet, 24 hours). The settings on record: for Cytotoxicity in CaLu-3 cells: concentrations of up to 100 μM, combinations with respect to AM or AG. The series is classed as cell-based. The procedure:
In order to determine the cytotoxicity, CaLu-3 cells were cultured in 96-well microtitre plates. The cell culture medium was replaced with fresh medium which contained the gold compounds in concentrations of 25, 50 or 100 μM and incubated for 24 hours at 37° C./5% CO2. Next, the remaining cells were photometrically determined using crystal violet stain (Victor X4 microplate reader). The quantity of cells in the treated samples was calculated as a percentage with respect to an untreated control.

The subject of series [3] is bovine coronavirus (BCoV). The series is classed as cell-based.
For series [4], the target named is SARS-CoV-2 3CL protease (Mpro) (Severe acute respiratory syndrome coronavirus 2, UniProt P0DTD1). The series is described as follows: Inhibition of SARS-CoV-2 protease 3CLpro. The series is classed as biochemical. The settings on record: 1 h preincubation at 37° C.
Method: 50 μL of the test substance solutions or pure HEPES buffer (positive control) was respectively added thereto and the resulting solutions were mixed and incubated for one hour at 37° C.
For series [5], the target named is T1, SARS-CoV-2 PLpro (Severe acute respiratory syndrome coronavirus 2, UniProt P0DTD1).
T1 construct: SARS-CoV-2 protease Papain-Like Protease (PLpro)
The series is described as follows: Inhibition of SARS-CoV-2 protease PLpro (fluorogenic substrate Z-Arg-Leu-Arg-Gly-Gly-AMC). The series is classed as biochemical. The settings on record: 1 h preincubation at 37° C.; for the mixture with respect to the quantity of aurothioglucose.

The target of series [6] is T1, SARS-CoV-2 PLpro. The series is described as follows: Removal of zinc from PLpro (FluoZin-3 fluorescence). The series is classed as biochemical. The settings on record: 50 μM test compound, 500 nM PLpro, up to 90 minutes (FIG. 10). The procedure: In addition to a cysteine in the catalytic centre of the enzyme, the protease Plpro contains further cysteines in a zinc binding domain which stabilise the structure and function of the enzyme. The removal of the bound zinc constitutes an interesting mechanism for the action of inhibitors for PLpro.
In order to establish whether the inhibitors are Zn-removing agents, the presence of the Zn^2+ cation in solution was determined as follows. The inhibitor compounds were prepared as stock solutions in DMSO, as stock solutions in water or DMSO and diluted one hundred-fold with HEPES buffer ([…], pH 7.5) to 100 μM concentrations. Volumes of 50 μL of SARSCoV-2 PLpro (Elabscience) in HEPES buffer or blank HEPES buffer (control for false positive results) were placed in the wells of a black 96-well microtitre plate (Nunclon, Nunc). Volumes of 50 μL of the inhibitor solutions or 1% DMSO in HEPES buffer (control) were added. […] The resulting solutions were mixed and the fluorescence emission was determined after 10 min, every 10 min over a period of 90 minutes, at 37° C. (λexc=485 nm, λem=535 nm); Victor X4 microtitre plate reader). The relative fluorescence was calculated by dividing the absolute fluorescence emission of the well which contained the inhibitor by the absolute fluorescence of the corresponding well which contained the enzyme but no inhibitor (control). […]

In the case of auroacetylcysteine, the “Total inflammatory cells in bronchial secretions, extent of respiratory tract inflammation, eosinophils and neutrophiles, inflammatory infiltrates in lung parenchyma” value in series [1] (10 mg/kg over 5 days) was “reduced”. For the same compound, the “Inflammatory parameters peribronchially and in the parenchyma” value in series [1] (10 mg/kg, histology) is on record as “reduced”. Besides, the “Deaths in treatment group” value in series [1] (AAC group, 5 mice) is “one death”. Besides, in series [1] (cell populations (FIG. 5)), the “Eosinophilic and neutrophilic granulocytes and lymphocytes” value was “reduced”; the Macrophages entry is “increased compared with dexamethasone”. Further, the “Total cell count in bronchoalveolar lavage” value in series [1] (intranasal, compared with placebo and dexamethasone 1 mg/kg (FIG. 2)) was “comparable with dexamethasone”. The “Anti-inflammatory effect in the tissue” value in series [1] (versus dexamethasone 1 mg/kg) was “comparable with that of dexamethasone”.

In the case of `CC(=O)N[C@@H](CS)C(=O)O` [N-acetylcysteine], the remaining activity at 100 µM in series [2] (100 μM, N-acetylcysteine alone, read-out: Spike/ACE2 interaction remaining, % of control) came to 97%.

For `CC(=O)OC[C@H]1O[C@@H]([S-])[C@H](OC(C)=O)[C@@H](OC(C)=O)[C@@H]1OC(C)=O.CCP(CC)CC.[Au+]` [auranofin], in the series on CaLu-3 cells (25 μM, CaLu-3 cells), the “Quantity of cells, % of the untreated control” value was < 20 % of the untreated control.

Regarding `NC(=O)c1nc(F)c[nH]c1=O` [favipiravir], the “Viral load formed on adding favipiravir” value in series [3] was “reduction in the viral load”.

Regarding `OC[C@H]1O[C@H]([S-])[C@H](O)[C@@H](O)[C@@H]1O.[Au+]` [aurothioglucose], the “Affinity for the spike protein of SARS-CoV-2 virus” value in series [2] is on record as “high affinity”. Moreover, the “Inhibition of the spike/ACE2 interaction” value in series [2] (20 μM aurothioglucose (FIG. 8)) was “resulted in an inhibition”. In addition, the “Cytotoxicity in CaLu-3 cells” value with CaLu-3 cells is listed as “no relevant cytotoxicity”. The results for the IC50 (in series [4]; on SARS-CoV-2 PLpro [5]) were 8.25 µM and 7.03 µM, respectively. In addition, the “Reduction in the viral load” value in series [3] (256 μM aurothioglucose, preincubated 1 h with 100 TCID50 BCoV, MDBK cells, 12-48 hours) is recorded as 10 fold. The “Removal of zinc from PLpro” value at SARS-CoV-2 PLpro [6] is listed as “comparable with the reference compound disulfiram”.

Take `O=C(O)CC([S-])C(=O)O.[Au+]` (centres unmarked) [aurothiomalate]: the “Cytotoxicity in CaLu-3 cells” value in the series on CaLu-3 cells is on record as “no relevant cytotoxicity”. Besides, the IC50 in series [4] was 22.9 µM; on SARS-CoV-2 PLpro [5], 0.6 µM.

The IC50 is the concentration that inhibits the measured activity by half.
